# Test results reported in patent US20200085784A1, “METHODS TO TREAT FIBROSIS, NASH, AND NAFLD” (Minneamrita Therapeutics, LLC, priority 2018, published 2020).
# Structures can show the parent of a compound that is named as a salt.
# Legend:
# [1] = system: CCl4-induced liver fibrosis; test: Mouse model of carbon tetrachloride (CCl4) liver fibrosis; format: in vivo, C57Bl6/J mice
# Description: Two animal models were used: Mouse model of Carbon tetrachloride (CCl4). In this model, C57Bl6/J mice (8 weeks of age; ˜25 g) received twice a week during 4 weeks 250 μL i.p. of either olive oil or CCl4 at a dose of 3.5 ml/kg diluted in olive oil. Animals were treated with 0.2 mg/kg Minnelide after 4 weeks of CCl4.
# (§1) For both models, injury and fibrosis were determined by examination of histological specimens by H&E staining as well as picrosirius red staining.
# [2] = system: DEN+CCl4-induced liver fibrosis; test: Mouse model of CCl4+Diethylnitrosamine (DEN)-induced liver injury; format: in vivo, C57Bl6/J mice; settings: for DEN+CCl4-induced collagen deposition (Massons Trichrome and Sirius red staining): Minnelide 0.2 mg/kg, compared to the vehicle
# Description: Mouse model of CCl4+Diethylnitrosamine (DEN)-induced liver injury. C57Bl6/J mice (3 weeks of age; ˜15 g) received one single dose of DEN (25 mg/kg). From 8 weeks of age; (˜25 g) they receive twice a week during 4 weeks 250 μL i.p. of either olive oil or CCl4 at a dose of 0.2 ml/kg diluted in olive oil. Animals were treated with 0.2 mg/kg Minnelide after 4 weeks of CCl4.
# as §1
# DIO-NASH mouse model = test: Diet-induced obese (DIO) mouse model of non-alcoholic steatohepatitis (NASH); format: in vivo, C57BL/6JRj mice; settings: Minnelide 0.1 mg/kg PO QD, 8 weeks; compared to vehicle treated control DIO-NASH mice
# From the text: To investigate the effect of 8 weeks of treatment with Minnelide alone and in combination with Elafibranor or Liraglutide in DIO-NASH mouse model, metabolic parameters, hepatic pathology and NAFLD Activity Score (NAS) including Fibrosis Stage data were collected.
# Male […] mice were obtained from Janvier Labs (Le Genest Saint Isle, France). Mice had ad libitum access to tap water and either regular rodent chow (Altromin 1324, Brogaarden, Hoersholm, Denmark), or a diet high in fat (40%, containing 18% trans-fat), 40% carbohydrates (20% fructose) and 2% cholesterol (AMLN diet; D09100301, Research Diets, New Brunswick, N.J.). C57BL/6JRj mice were fed regular chow as lean chow vehicle control group or AMLN diet as DIO-NASH mice for 35 weeks prior to treatment start.
# All animals included in the drug treatment experiments underwent liver biopsy for baseline characterization of hepatic parameters and stratified randomization into treatment groups. Mice are anesthetized by inhalation anesthesia using isoflurane (2-3%). […] A stratified randomization into treatment groups is performed according to liver Collagen 1a1 quantification. […]
# Biochemical and histological analyses were performed as reported previously (Tølbøl, et al. World J Gastroenterol. Jan. 14, 2018; 24(2): 179-194). […] Liver homogenates were analyzed for TG and TC. […]
# [3] = therapeutic intervention, CCl4 induced liver fibrosis
# [4] = therapeutic intervention, DEN+CCl4 induced liver fibrosis
smiles,measurement,setting,value
"CC(C)[C@]12O[C@H]1[C@@H]1O[C@]13[C@]1(O[C@H]1C[C@H]1C4=C(CC[C@@]13C)C(=O)OC4)[C@@H]2OCOP(=O)(O)O [Minnelide, 14-O-phosphonooxymethyltriptolide disodium salt]","steatosis, ballooning, and inflammatory foci (liver H&E staining)","[1]; CCl4 administration, 8 week time point",reduced
same,α-SMA expression (immunofluorescence staining),[1]; CCl4 model,reduced
same,CCl4-induced collagen deposition (Massons Trichrome and Sirius red staining),"[1]; Minnelide 0.2 mg/kg, compared to the vehicle",inhibited
same,fibrosis,[1]; [3],reduction
same,plasma biochemical markers,[1]; [3],reduction
same,"expression of Tnf-α, IL6, IL-1β and iNOS (inflammation associated genes)",[2]; 8 week time point,decreased
same,"expression of inflammasome genes (NLRP3, apoptosis-associated speck-like protein containing a CARD, caspase1, IL-1β, IL18)",[2]; 8 week time point,decreased
same,"steatosis, ballooning, and inflammatory foci (liver H&E staining)",[2]; 12 week time point,reduced
same,"steatosis, ballooning, and inflammatory foci (liver H&E staining)","[2]; DEN+CCl4 administration, 8 week time point",reduced
same,α-SMA expression (immunofluorescence staining),[2]; DEN+CCl4 model,reduced
same,DEN+CCl4-induced collagen deposition (Massons Trichrome and Sirius red staining),[2],inhibited
same,DEN+CCl4-induced collagen deposition (Massons Trichrome and Sirius red staining),[2]; 12 week time point paragraph,inhibited
same,fibrosis,[2]; [4],reduction
same,plasma biochemical markers,[2]; [4],reduction
same,reduction in liver Galectin-3 (% fractional area),DIO-NASH mouse model,18.41%
